The record followed here is ChEMBL document CHEMBL1135008, “17S,20S-Methanofusidic acid, a new potent semi-synthetic fusidane antibiotic” (2002).

Common to all, as to assay type: functional
Assay [1] deals with Streptococcus sp. Put plainly: Compound was tested for its antibacterial activity against Streptococcus sp. EG 14.
The test system of assay [2] is Streptococcus pyogenes. Put plainly: Compound was tested for its antibacterial activity against Streptococcus pyogenes EC.
Assay [3] deals with Staphylococcus aureus. Put plainly: Compound was tested for its antibacterial activity against Staphylococcus aureus ATCC 2977.
Assay [4] relates to Cutibacterium acnes. Kind of assay: Compound was tested for its antibacterial activity against Propionibacterium acnes NCTC 737.
Assay [5] concerns Escherichia coli. Kind of assay: Compound was tested for its antibacterial activity against Escherichia coli HA 44.
The test system of assay [6] is Bacillus cereus. Kind of assay: Compound was tested for its antibacterial activity against Bacillus cereus ATCC 10876.
In assay [7] the test system is Corynebacterium xerosis. Put plainly: Compound was tested for its antibacterial activity against Corynebacterium xerosis NCTC 9755.
Assay [8] relates to Enterococcus faecium. Kind of assay: Compound was tested for its antibacterial activity against Enterococcus faecium EI 119, penicillin resistant.
Assay [9] relates to Lactiplantibacillus plantarum. Put plainly: Compound was tested for its antibacterial activity against Lactobacillus plantarum ATCC 8014.
In assay [10] the test system is Geobacillus stearothermophilus. Put plainly: Compound was tested for its antibacterial activity against Bacillus stearothermophilus KG 5.
For assay [11], the system named is Micrococcus luteus. Kind of assay: Compound was tested for its antibacterial activity against Micrococcus luteus ATCC 9341.
The test system of assay [12] is Enterococcus faecalis. Put plainly: Compound was tested for its antibacterial activity against Enterococcus faecalis ATCC 10541.
Assay [13] has as its system Staphylococcus epidermidis. Put plainly: Compound was tested for its antibacterial activity against Staphylococcus epidermidis ATCC 12228.
Assay [14] has as its system Pseudomonas aeruginosa. Put plainly: Compound was tested for its antibacterial activity against Pseudomonas aeruginosa ATCC 10145.
The test system of assay [15] is Streptococcus sp. Kind of assay: Compound was tested for its antibacterial activity against Streptococcus sp. EF 6.
In assay [16] the test system is Staphylococcus aureus. Put plainly: Compound was tested for its antibacterial activity against Staphylococcus aureus CJ 232 (MRSA).
The test system of assay [17] is Clostridium perfringens. Kind of assay: Compound was tested for its antibacterial activity against Clostridium perfringens KT 13.
For assay [18], the system named is Staphylococcus epidermidis. Kind of assay: Antimicrobial evaluation revealed potent activity against several Gram positive bacteria (Staphylococcus epidermidis ATCC 12228).

Converted amounts (≈) assume the structure as drawn.

On to `CC(=O)O[C@H]1C[C@@]2(C)C(C[C@@H](O)[C@H]3[C@@]4(C)CC[C@@H](O)[C@@H](C)[C@@H]4CC[C@@]32C)/C1=C(\CCC=C(C)C)C(=O)O` (some centres undefined), for which the MIC is 16 µg/mL (≈ 31 µM) in assay [1]; 4 µg/mL (≈ 7.74 µM) in [2]; 0.006 µg/mL (≈ 0.0116 µM) in assay [3]; 0.02 µg/mL (≈ 0.0387 µM) in assay [4]; over 125 µg/mL in assay [5]; 4 µg/mL (≈ 7.74 µM) in assay [6]. Moreover, the MIC in assay [7] was 0.04 µg/mL (≈ 0.0774 µM); in assay [8], 0.02 µg/mL (≈ 0.0387 µM); in [9], 4 µg/mL (≈ 7.74 µM); in [10], 0.03 µg/mL (≈ 0.0581 µM); in assay [11] it was 1 µg/mL (≈ 1.94 µM); in assay [12] it was 4 µg/mL (≈ 7.74 µM). Also, the MIC came to 0.001 µg/mL (≈ 0.00194 µM) in assay [13]; 1 µg/mL (≈ 1.94 µM) in assay [14]; 4 µg/mL (≈ 7.74 µM) in assay [15]; 0.015 µg/mL (≈ 0.029 µM) in assay [16]; 16 µg/mL (≈ 31 µM) in [17].
Consider `CC(=O)O[C@H]1C[C@@]2(C)C(C[C@@H](O)[C@H]3[C@@]4(C)CC[C@@H](O)[C@@H](C)C4CC[C@@]32C)[C@]12C[C@]2(CCC=C(C)C)C(=O)O` (some centres undefined), for which the MIC in [1] is 63 µg/mL (≈ 119 µM); in assay [2], 16 µg/mL (≈ 30.1 µM); in assay [3], 0.003 µg/mL (≈ 0.00565 µM); in assay [4], 0.02 µg/mL (≈ 0.0377 µM); in [5], over 125 µg/mL; in assay [6], 1 µg/mL (≈ 1.88 µM). For the same molecule, the MIC came to 0.04 µg/mL (≈ 0.0754 µM) in [7]; 0.02 µg/mL (≈ 0.0377 µM) in assay [8]; 63 µg/mL (≈ 119 µM) in assay [9]; 0.03 µg/mL (≈ 0.0565 µM) in [10]; 0.25 µg/mL (≈ 0.471 µM) in assay [11]; 16 µg/mL (≈ 30.1 µM) in assay [12]. Besides, the MIC in [18] is 0.001 µg/mL (≈ 0.00188 µM); in [14], 1 µg/mL (≈ 1.88 µM); in [15] it was 16 µg/mL (≈ 30.1 µM); in [16] it was 0.014 µg/mL (≈ 0.0264 µM); in [17], 16 µg/mL (≈ 30.1 µM).
